Data: PubChem BioAssay AID1259408 (Genetic Toxicology Data Bank (GENE-TOX), 2018)
Calls of active or inactive are those of the source. The rule behind the calls is not given here.

Test system: GENE-TOX genotoxicity assays, various organisms and cells
Experiment: GENE-TOX mutagenicity studies
Details: for call: Assay Type: In vivo carcinogenicity studies
[1] = Species/Cell Type: Mammalian polychromatic erythrocytes, Assay Type: Micronucleus test, chromosome aberrations, Assay Code: MNTT, Evaluation Type: Evaluation B (Post-1980)
[2] = Species/Cell Type: Salmonella typhimurium (one or more of the five standard strains: TA98, TA100, TA1535, TA1537, and TA1538), Assay Type: Histidine reverse gene mutation, Ames assay, Assay Code: SAL+*, Activation: With metabolic activation, Evaluation Type: Evaluation A (Pre-1980)
[3] = Species/Cell Type: Salmonella typhimurium (one or more of the five standard strains: TA98, TA100, TA1535, TA1537, and TA1538), Assay Type: Histidine reverse gene mutation, Ames assay, Assay Code: SAL+, Evaluation Type: Evaluation A (Pre-1980)
[4] = Species/Cell Type: Nonhuman, Assay Type: Chromosome aberrations in vitro, Assay Code: CY&+, Evaluation Type: Evaluation A (Pre-1980)
[5] = Species/Cell Type: Schizosaccharomyces pombe, Assay Type: Reverse gene mutation, Assay Code: YEZ+, Evaluation Type: Evaluation A (Pre-1980)
[6] = Species/Cell Type: Escherichia coli polA (W3119 vs P3478), Assay Type: Rec-assay, DNA effects (bacterial DNA repair), Assay Code: RE1T, Evaluation Type: Evaluation A (Pre-1980)
[7] = Species/Cell Type: Drosophila melanogaster, Assay Type: Sex-linked recessive lethal gene mutation, Assay Code: SRL-, Evaluation Type: Evaluation A (Pre-1980)
[8] = Species/Cell Type: Nonhuman, Assay Code: CCG+, Evaluation Type: Evaluation A (Pre-1980)
[9] = Species/Cell Type: Neurospora crassa, Assay Type: Forward gene mutation, Assay Code: NEF+, Evaluation Type: Evaluation A (Pre-1980)

Q: What does the source list for `CO`?
A: mutagenic call [1]: no conclusion; mutagenic call (Species/Cell Type: Neurospora crassa, Assay Type: Aneuploidy, chromosome aberrations, Assay Code: NEN-, Evaluation Type: Evaluation A (Pre-1980)): inactive; negative; mutagenic call (Species/Cell Type: Nonhuman, Assay Type: Sister-chromatid exchange (SCE) in vitro, Assay Code: SC2-, Evaluation Type: Evaluation A (Pre-1980)): inactive; negative; mutagenic call (Species/Cell Type: Syrian hamster embryo (SA7/SHE) cells, Assay Type: Cell transformation, viral enhanced, Assay Code: CT7-, Evaluation Type: Evaluation A (Pre-1980)): inactive; negative; mutagenic call (Species/Cell Type: Syrian hamster embryo (SHE) cells, Assay Type: Cell transformation, clonal assay, Assay Code: CTC-, Evaluation Type: Evaluation A (Pre-1980)): inactive; negative

Q: With `Nc1ccc2ccc3ccccc3c2n1` as the compound, how does the mutagenic call [2] read?
A: The mutagenic call was “active; positive”.

Q: `c1ccc2cc(C3CO3)ccc2c1` (configuration not stated) was tested. Which mutagenic call [3] did it give?
A: Its mutagenic call is “active; positive”.

Q: Which mutagenic call (Species/Cell Type: Nonhuman bone marrow, Assay Type: Chromosome aberrations, in vivo, Assay Code: CY#+, Evaluation Type: Evaluation A (Pre-1980)) does the source give for `CCNP(=O)(N1CC1)N1CC1` here?
A: The mutagenic call was “active; positive”.

Q: What about the mutagenic call [4] of the same compound?
A: Its mutagenic call is “active; positive”.

Q: What about the mutagenic call [5] of the same compound?
A: The mutagenic call was “active; positive”.

Q: For `CC(=O)Nc1nc(/C=C/c2ccc([N+](=O)[O-])o2)cs1`, which mutagenic call [3] is on record?
A: The mutagenic call was “active; positive”.

Q: Which mutagenic call [5] does the source give for `ClN1CC1` here?
A: The mutagenic call was “active; positive”.

Q: With `CSCCC(N)C(=O)O` (configuration not stated) as the compound, how does the mutagenic call [6] read?
A: Its mutagenic call is “no conclusion”.

Q: How did the mutagenic call [1] turn out when `C[C@@H]1O[C@H]1P(=O)(O)O` was run?
A: The mutagenic call was “no conclusion”.

Q: Which results are given for `Clc1ccc(C(c2ccc(Cl)cc2)C(Cl)(Cl)Cl)cc1`?
A: mutagenic call (Species/Cell Type: Chinese hamster lung (V79) cells, Assay Type: Forward gene mutation at the HPRT or ouabain locus, Assay Code: V79+, Evaluation Type: Evaluation A (Pre-1980)): active; positive; mutagenic call (Species/Cell Type: Drosophila melanogaster, Assay Type: Aneuploidy, partial sex chromosome loss, chromosome aberrations, Assay Code: DAP+M, Evaluation Type: Evaluation A (Pre-1980)): active; positive; mutagenic call (Species/Cell Type: Drosophila melanogaster, Assay Type: Aneuploidy, sex chromosome gain, chromosome aberrations, Assay Code: DAGT, Evaluation Type: Evaluation A (Pre-1980)): no conclusion; mutagenic call (Species/Cell Type: Drosophila melanogaster, Assay Type: Aneuploidy, whole sex chromosome loss, chromosome aberrations, Assay Code: DACT, Evaluation Type: Evaluation A (Pre-1980)): no conclusion; mutagenic call [7]: inactive; negative; mutagenic call [6]: no conclusion; mutagenic call (Species/Cell Type: Mammalian polychromatic erythrocytes, Assay Type: Micronucleus test, chromosome aberrations, Assay Code: MNTT, Evaluation Type: Evaluation A (Pre-1980)): no conclusion; mutagenic call (Species/Cell Type: Mouse, Sex: Male, Assay Type: Sperm morphology, Assay Code: SPI-, Evaluation Type: Evaluation A (Pre-1980)): inactive; negative; mutagenic call [4]: active; positive; call [8]: active; positive; mutagenic call (Species/Cell Type: Rodents, Sex: Male, Assay Type: Dominant lethal test, Assay Code: DLTT, Evaluation Type: Evaluation A (Pre-1980)): no conclusion; mutagenic call (Species/Cell Type: Saccharomyces cerevisiae, Assay Type: Mitotic recombination or gene conversion, Assay Code: YEH-*, Activation: With metabolic activation, Evaluation Type: Evaluation A (Pre-1980)): inactive; negative; mutagenic call (Species/Cell Type: Salmonella typhimurium (one or more of the five standard strains: TA98, TA100, TA1535, TA1537, and TA1538), Assay Type: Histidine reverse gene mutation, Ames assay, Assay Code: SAL-, Evaluation Type: Evaluation A (Pre-1980)): inactive; negative; mutagenic call (Species/Cell Type: Salmonella typhimurium, Serratia marcesens, Assay Type: Forward and reverse gene mutation, host-mediated assay, Assay Code: HM2-, Evaluation Type: Evaluation A (Pre-1980)): inactive; negative

Q: For `CC(=O)Nc1ccc(O)cc1`, which mutagenic call (Species/Cell Type: Human lymphocytes, Assay Type: Sister-chromatid exchange (SCE) in vitro, Assay Code: SCL-, Evaluation Type: Evaluation B (Post-1980)) is on record?
A: Its mutagenic call is “inactive; negative”.

Q: What about the mutagenic call (Species/Cell Type: Salmonella typhimurium (one or more of the five standard strains: TA98, TA100, TA1535, TA1537, and TA1538), Assay Type: Histidine reverse gene mutation, Ames assay, Assay Code: SALT, Evaluation Type: Evaluation A (Pre-1980)) of the same compound?
A: The mutagenic call was “no conclusion”.

Q: Which results are given for `O=C1CCc2c1ccc1c2ccc2ccccc21`?
A: mutagenic call (Species/Cell Type: Human lymphocytes, Assay Type: Sister-chromatid exchange (SCE) in vitro, Assay Code: SCLT, Evaluation Type: Evaluation B (Post-1980)): no conclusion; mutagenic call (Species/Cell Type: Human, Assay Type: Sister-chromatid exchange (SCE) in vitro, Assay Code: SC1T, Evaluation Type: Evaluation B (Post-1980)): no conclusion; mutagenic call [2]: active; positive

Q: For `ClCc1cccnc1`, which mutagenic call (Species/Cell Type: Fischer rat embryo (RLV/1706) cells, Assay Type: Cell transformation, viral enhanced, Assay Code: CTR+, Evaluation Type: Evaluation A (Pre-1980)) is on record?
A: Its mutagenic call is “active; positive”.

Q: What about the mutagenic call (Species/Cell Type: Mouse (BALB/c-3T3) cells, Assay Type: Cell transformation, Assay Code: CTB-, Evaluation Type: Evaluation A (Pre-1980)) of the same compound?
A: The mutagenic call was “inactive; negative”.

Q: And the call (Species/Cell Type: Nonhuman, Assay Code: CCG+L, Evaluation Type: Evaluation A (Pre-1980))?
A: Its call is “active; positive”.

Q: Which results are given for `CCN(CC)CCn1nc2c3c(c(C)ccc31)Sc1cc(Cl)ccc1-2`?
A: mutagenic call [7]: inactive; negative; mutagenic call (Species/Cell Type: Mouse lymphoma (L5178Y) cells, Assay Type: Forward gene mutation at the thymidine kinase (TK) locus, chromosome aberrations, Assay Code: L51+, Evaluation Type: Evaluation A (Pre-1980)): active; positive; mutagenic call [9]: active; positive; mutagenic call [2]: active; positive

Q: With `Nc1ccc(OCCO)c(N)c1` as the compound, how does the mutagenic call [1] read?
A: Its mutagenic call is “no conclusion”.

Q: `Nc1ccc(Cl)cc1N` was tested. Which call [8] did it give?
A: The call was “active; positive”.

Q: `O[C@@H]1[C@H]2O[C@H]2c2cc3ccc4cccc5ccc(c2[C@H]1O)c3c45` was tested. Which mutagenic call [3] did it give?
A: The mutagenic call was “active; positive”.

Q: With `C=O` as the compound, how does the mutagenic call (Species/Cell Type: Chinese hamster ovary (CHO) cells, Assay Type: Forward gene mutation at the HPRT locus, Assay Code: CHOT, Evaluation Type: Evaluation B (Post-1980)) read?
A: Its mutagenic call is “no conclusion”.

Q: And the mutagenic call (Species/Cell Type: Drosophila melanogaster, Assay Type: Sex-linked recessive lethal gene mutation, Assay Code: SRL+, Evaluation Type: Evaluation A (Pre-1980))?
A: The mutagenic call was “active; positive”.

Q: What about the mutagenic call (Species/Cell Type: Drosophila melanogaster, Sex: Male, Assay Type: Heritable translocation test, chromosome aberrations, Assay Code: DHT+, Evaluation Type: Evaluation A (Pre-1980)) of the same compound?
A: The mutagenic call was “active; positive”.

Q: And the mutagenic call (Species/Cell Type: Escherichia coli polA (W3119 vs P3478), Assay Type: Rec-assay, DNA effects (bacterial DNA repair), Assay Code: RE1+, Evaluation Type: Evaluation A (Pre-1980))?
A: The mutagenic call was “active; positive”.

Q: And the mutagenic call (Species/Cell Type: Human diploid fibroblasts, Assay Type: Unscheduled DNA synthesis (UDS) in vitro, DNA effects, Assay Code: UDHT, Evaluation Type: Evaluation A (Pre-1980))?
A: Its mutagenic call is “no conclusion”.

Q: And the mutagenic call (Species/Cell Type: Human lymphocytes, Assay Type: Sister-chromatid exchange (SCE) in vitro, Assay Code: SCL+D, Dose Response: With dose response, Evaluation Type: Evaluation B (Post-1980))?
A: Its mutagenic call is “active; positive”.

Q: And the mutagenic call (Species/Cell Type: Human lymphocytes, Assay Type: Sister-chromatid exchange (SCE) in vivo, Assay Code: SCY+, Evaluation Type: Evaluation B (Post-1980))?
A: The mutagenic call was “active; positive”.

Q: What about the mutagenic call (Species/Cell Type: Human, Assay Type: Sister-chromatid exchange (SCE) in vitro, Assay Code: SC1+D, Dose Response: With dose response, Evaluation Type: Evaluation B (Post-1980)) of the same compound?
A: Its mutagenic call is “active; positive”.

Q: And the mutagenic call [1]?
A: Its mutagenic call is “no conclusion”.

Q: And the mutagenic call (Species/Cell Type: Neurospora crassa, Assay Type: Reverse gene mutation, Assay Code: NER+, Evaluation Type: Evaluation A (Pre-1980))?
A: Its mutagenic call is “active; positive”.

Q: And the call [8]?
A: Its call is “active; positive”.

Q: What about the mutagenic call (Species/Cell Type: Nonhuman, Assay Type: Sister-chromatid exchange (SCE) in vitro, Assay Code: SC2+D, Dose Response: With dose response, Evaluation Type: Evaluation B (Post-1980)) of the same compound?
A: Its mutagenic call is “active; positive”.

Q: What about the mutagenic call (Species/Cell Type: Saccharomyces cerevisiae, Assay Type: Mitotic recombination or gene conversion, Assay Code: YEC+, Evaluation Type: Evaluation A (Pre-1980)) of the same compound?
A: The mutagenic call was “active; positive”.

Q: What about the mutagenic call (Species/Cell Type: Saccharomyces cerevisiae, Assay Type: Reverse gene mutation, Assay Code: YER+, Evaluation Type: Evaluation A (Pre-1980)) of the same compound?
A: Its mutagenic call is “active; positive”.

Q: With `Cc1cc(-c2ccccc2C)ccc1N` as the compound, how does the mutagenic call (Species/Cell Type: Escherichia coli polA (W3110 vs P3478), Assay Type: Rec-assay, DNA effects (bacterial DNA repair), Assay Code: RE2+, Evaluation Type: Evaluation A (Pre-1980)) read?
A: Its mutagenic call is “active; positive”.

Q: What about the mutagenic call [6] of the same compound?
A: Its mutagenic call is “no conclusion”.

Q: What about the mutagenic call (Species/Cell Type: Rat primary hepatocytes, Assay Type: Unscheduled DNA synthesis (UDS) in vitro, DNA effects, Assay Code: UDP+, Evaluation Type: Evaluation A (Pre-1980)) of the same compound?
A: The mutagenic call was “active; positive”.

Q: What about the mutagenic call (Species/Cell Type: Saccharomyces cerevisiae, Assay Type: Mitotic recombination or gene conversion, Assay Code: YEH-, Evaluation Type: Evaluation A (Pre-1980)) of the same compound?
A: Its mutagenic call is “inactive; negative”.

Q: And the mutagenic call [2]?
A: The mutagenic call was “active; positive”.

Q: And the mutagenic call (Species/Cell Type: Salmonella typhimurium, Assay Type: Forward and reverse gene mutation, body fluid assay, Assay Code: BFU+, Evaluation Type: Evaluation A (Pre-1980))?
A: Its mutagenic call is “active; positive”.

Q: And the mutagenic call (Species/Cell Type: Salmonella typhimurium, Assay Type: Forward and reverse gene mutation, host-mediated assay, Assay Code: HMA+, Evaluation Type: Evaluation A (Pre-1980))?
A: The mutagenic call was “active; positive”.

Q: And the mutagenic call (Species/Cell Type: Syrian hamster embryo (SHE) cells, Assay Type: Cell transformation, clonal assay, Assay Code: CTC+D, Dose Response: With dose response, Evaluation Type: Evaluation A (Pre-1980))?
A: The mutagenic call was “active; positive”.

Q: For `CN=NNc1ccccc1`, which mutagenic call [9] is on record?
A: The mutagenic call was “active; positive”.

Q: `Cc1cc(C(=C2C=CC(=Nc3ccc(S(=O)(=O)O)cc3)C=C2)c2ccc(Nc3ccc(S(=O)(=O)O)cc3)cc2)cc(S(=O)(=O)O)c1N` was tested. Which mutagenic call (Species/Cell Type: Bacillus subtilis (H17 vs M45), Assay Type: Rec-assay, spot test, DNA effects (bacterial DNA repair), Assay Code: REWT, Evaluation Type: Evaluation A (Pre-1980)) did it give?
A: The mutagenic call was “no conclusion”.
